In this experiment the target is human adenosine A2a receptor (Homo sapiens (Human), UniProt P29274). Nature of the experiment: A2a receptor binding affinity, [3H]-NECA radioligand binding test. The following applies: [3H]-NECA 37 nM; membrane from HEK-293 cells transfected with human adenosine A2a receptor. As for the experimental part: The binding affinity of the compounds according to Examples of the present invention to the human adenosine A2a receptor was evaluated by entrusting SB drug discovery in the UK.
A radioligand binding test was conducted by using [3H]-NECA (5′-N-[adenine-2,8-3H]-ethylcarboxamidoadenosine) and an adenosine A2a membrane. As the adenosine A2a membrane, a cell membrane prepared from HEK-293 cells transfected with human adenosine A2a receptor was used. The membrane used for the test was prepared by incubating with a radioligand until equilibrium was reached. In order to separate the radioligand-bound membrane, the unbound radioligand was separated by using Packard filtermate Harverster and glass filter plates.
10 μL of test compound dissolved in binding buffer (50 mM Tris, 10 mM MgCl2, 1 mM EDTA pH 7.4) and 20 μL of [3H]-NECA (final concentration of 37 nM) or reference inhibitor was mixed with 20 μL of A2a membrane in an unbound 96-well plate and incubated at room temperature for one hour. Prior to filtration, a 96-well harvest filter plate was coated with 0.33% polyethylenimine for 30 minutes and then washed with assay buffer. The binding reaction was transferred to the filter plate and washed three times with wash buffer. The dish was then dried, scintillant was added, and radioactivity was counted in a scintillation counter (Topcount NXT, Packard).
The binding affinity IC50 (μM) for the human adenosine A2a receptor obtained according to the above experimental method is shown in the table below.

pIC50: −log10 of the molar value.

Sequence of human adenosine A2a receptor (P29274 whole entry): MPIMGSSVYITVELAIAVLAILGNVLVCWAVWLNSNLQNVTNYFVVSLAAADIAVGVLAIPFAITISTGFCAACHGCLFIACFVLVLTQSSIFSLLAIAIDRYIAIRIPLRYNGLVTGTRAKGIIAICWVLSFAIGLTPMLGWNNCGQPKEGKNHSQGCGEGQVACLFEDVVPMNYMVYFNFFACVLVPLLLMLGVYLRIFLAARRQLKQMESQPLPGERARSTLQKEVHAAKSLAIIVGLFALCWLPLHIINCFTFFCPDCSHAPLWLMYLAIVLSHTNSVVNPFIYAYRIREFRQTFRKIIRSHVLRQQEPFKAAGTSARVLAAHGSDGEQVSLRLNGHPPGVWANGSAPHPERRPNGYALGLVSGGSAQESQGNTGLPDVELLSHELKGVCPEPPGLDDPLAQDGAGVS

As usually defined, the pIC50 is the IC50 on a negative log10 scale, so that one unit is a factor of ten. In turn, `COc1cccc(CN2CCN(C(=O)[C@H](C)Nc3nc(N)n4nc(-c5ccco5)nc4n3)CC2)c1` [Example 24, (S)-2-((7-amino-2-(furan-2-yl)-[1,2,4]triazolo[1,5-a][1,3,5]triazin-5-yl)amino)-1-(4-(3-methoxybenzyl)piperazin-1-yl)propan-1-one] had a pIC50 of 7.48.

With `Nc1nc(N2CCC[C@H]2C(=O)N2CCN(C(=O)c3ccc(F)cc3F)CC2)nc2nc(-c3ccco3)nn12` [Example 64, (4-((7-amino-2-(furan-2-yl)-[1,2,4]triazolo[1,5-a][1,3,5]triazin-5-yl)-L-prolyl)piperazin-1-yl)(2,4-difluorophenyl)methanone], the pIC50 is 7.85. The same measure for `Nc1nc(N2CC[C@H]2C(=O)N2CCN(CC(F)F)CC2)nc2nc(-c3ccco3)nn12` [Example 252, (S)-(1-(7-amino-2-(furan-2-yl)-[1,2,4]triazolo[1,5-a][1,3,5]triazin-5-yl)azetidin-2-yl)(4-(2,2-difluoroethyl)piperazin-1-yl)methanone]: 8.22. Compound `CCCC[C@H](Nc1nc(N)n2nc(-c3ccco3)nc2n1)C(=O)N1CCN(c2ccc(F)cc2F)CC1` [Example 164, (S)-2-((7-amino-2-(furan-2-yl)-[1,2,4]triazolo[1,5-a][1,3,5]triazin-5-yl)amino)-1-(4-(2,4-difluorophenyl)piperazin-1-yl)hexan-1-one] showed a pIC50 of 9.52. Against the preceding compound, the pIC50 is 1.30 log units higher. The figure for `CC(C)(O)CC(=O)N1CCN(C(=O)[C@@H]2CCN2c2nc(N)c3nc(-c4ccco4)sc3n2)CC1` [Example 275, (S)-1-(4-(1-(7-amino-2-(furan-2-yl)thiazolo[5,4-d]pyrimidin-5-yl)azetidin-2-carbonyl)piperazin-1-yl)-3-hydroxy-3-methylbutan-1-one] is 7.59; for `Cc1ccc(-c2nc3nc(N4CC[C@H]4C(=O)N4CCN(CC(F)(F)C(F)F)CC4)nc(N)n3n2)o1` [Example 312, (S)-(1-(7-amino-2-(5-methylfuran-2-yl)-[1,2,4]triazolo[1,5-a][1,3,5]triazin-5-yl)azetidin-2-y1)(4-(2,2,3,3-tetrafluoropropyl)piperazin-1-yl)methanone] it is 8.70; for `Nc1nc(N2CC[C@H]2C(=O)N2CCN(CC(F)(F)C(F)F)CC2)nc2nc(-c3ccco3)nn12` [Example 255, (S)-(1-(7-amino-2-(furan-2-yl)-[1,2,4]triazolo[1,5-a][1,3,5]triazin-5-yl)azetidin-2-yl)(4-(2,2,3,3-tetrafluoropropyl)piperazin-1-yl)methanone] it is 8.05.

`CCCC[C@H](Nc1nc(N)n2nc(-c3ccco3)nc2n1)C(=O)N1CCN(CCCC)CC1` [Example 173, (S)-2-((7-amino-2-(furan-2-yl)-[1,2,4]triazolo[1,5-a][1,3,5]triazin-5-yl)amino)-1-(4-butylpiperazin-1-yl)hexan-1-one] gave a pIC50 of 7.80. This pIC50 is 0.25 log units lower than that of the compound before. The figure for `Nc1nc(N2CCC[C@H]2C(=O)N2CCN(CC(F)(F)C(F)(F)F)CC2)cc2nc(-c3ccco3)nn12` [Example 296, (S)-(1-(5-amino-2-(furan-2-yl)-[1,2,4]triazolo[1,5-c]pyrimidin-7-yl)pyrrolidin-2-yl)(4-(2,2,3,3,3-pentafluoropropyl)piperazin-1-yl)methanone] is 9.10; for `CC(C)(C)[C@H](Nc1nc(N)n2nc(-c3ccco3)nc2n1)C(=O)N1CCN(c2ccc(F)cc2F)CC1` [Example 165, (S)-2-((7-amino-2-(furan-2-yl)-[1,2,4]triazolo[1,5-a][1,3,5]triazin-5-yl)amino)-1-(4-(2,4-difluorophenyl)piperazin-1-yl)-3,3-dimethylbutan-1-one] it is 9.22; for `COC1CCN(C(=O)[C@@H]2CCCN2c2nc(N)n3nc(-c4ccco4)nc3n2)CC1` [Example 146, (S)-(1-(7-amino-2-(furan-2-yl)-[1,2,4]triazolo[1,5-a][1,3,5]triazin-5-yl)pyrrolidin-2-yl)(4-methoxypiperidin-1-yl)methanone] it is 7.74. Consider `CCCCN1CCN(C(=O)[C@@H](Nc2nc(N)n3nc(-c4ccco4)nc3n2)c2ccccc2)CC1` [Example 190, (S)-2-((7-amino-2-(furan-2-yl)-[1,2,4]triazolo[1,5-a][1,3,5]triazin-5-yl)amino)-1-(4-butylpiperazin-1-yl)-2-phenylethan-1-one], for which the pIC50 was 8.10. In the case of `Cc1ccc(-c2nc3nc(N4CCC[C@H]4C(=O)N4CCN(Cc5ccc(F)cc5F)CC4)nc(N)n3n2)o1` [Example 40, (S)-(1-(7-amino-2-(5-methylfuran-2-yl)-[1,2,4]triazolo[1,5-a][1,3,5]triazin-5-yl)pyrrolidin-2-yl)(4-(2,4-difluorobenzyl)piperazin-1-yl)methanone], the pIC50 was 8.40. The figure for `CCC[C@H](Nc1nc(N)n2nc(-c3ccco3)nc2n1)C(=O)N1CCN(CC(F)(F)F)CC1` [Example 212, (S)-2-((7-amino-2-(furan-2-yl)-[1,2,4]triazolo[1,5-a][1,3,5]triazin-5-yl)amino)-1-(4-(2,2,2-trifluoroethyl)piperazin-1-yl)pentan-1-one] is 7.92. The figure for `CC[C@H](Nc1nc(N)n2nc(-c3ccco3)nc2n1)C(=O)N1CCN(c2ccc(F)cc2F)CC1` [Example 162, (S)-2-((7-amino-2-(furan-2-yl)-[1,2,4]triazolo[1,5-a][1,3,5]triazin-5-yl)amino)-1-(4-(2,4-difluorophenyl)piperazin-1-yl)butan-1-one] is 8.10; for `Nc1nc(N2CCC[C@H]2C(=O)N2CCN(CC3(C(F)(F)F)CCCCC3)CC2)nc2nc(-c3ccco3)nn12` [Example 285] it is 9.70; for `Nc1nc(N2CCC[C@H]2C(=O)N2CC3(CN(CC(F)(F)F)C3)C2)nc2nc(-c3ccco3)nn12` [Example 345, (S)-(1-(7-amino-2-(furan-2-yl)-[1,2,4]triazolo[1,5-a][1,3,5]triazin-5-yl)pyrrolidin-2-yl)(6-(2,2,2-trifluoroethyl)-2,6-diazaspiro[3.3]heptan-2-yl)methanone] it is 7.89. The same measure for `Nc1nc(N2CCC[C@H]2C(=O)N2CCN(C(=O)C3CCC(O)CC3)CC2)nc2nc(-c3ccco3)nn12` (stereo partly drawn) [Example 230]: 8.22; for `Nc1nc(N[C@H](C(=O)N2CCN(CC(F)F)CC2)C2CC2)nc2nc(-c3ccco3)nn12` [Example 354, (S)-2-((7-amino-2-(furan-2-yl)-[1,2,4]triazolo[1,5-a][1,3,5]triazin-5-yl)amino)-2-cyclopropyl-1-(4-(2,2-difluoroethyl)piperazin-1-yl)ethan-1-one]: 7.66. Compound `Nc1nc(N[C@H](C(=O)N2CCN(c3nccs3)CC2)C2CCOCC2)nc2nc(-c3ccco3)nn12` [Example 249, (S)-2-((7-amino-2-(furan-2-yl)-[1,2,4]triazolo[1,5-a][1,3,5]triazin-5-yl)amino)-2-(tetrahydro-2H-pyran-4-yl)-1-(4-(thiazol-2-yl)piperazin-1-yl)ethan-1-one] had a pIC50 of 8.05. The same measure for `Nc1nc(N2CCC[C@H]2C(=O)N2CCN(S(=O)(=O)CCOc3ccccc3)CC2)nc2nc(-c3ccco3)nn12` [Example 70, (S)-(1-(7-amino-2-(furan-2-yl)-[1,2,4]triazolo[1,5-a][1,3,5]triazin-5-yl)pyrrolidin-2-yl)(4-((2-phenoxyethyl)sulfonyl)piperazin-1-yl)methanone]: 8.40. On to `Nc1nc(N2C[C@H](O)C[C@H]2C(=O)N2CCN(c3ccc(F)cc3F)CC2)nc2nc(-c3ccco3)nn12` [Example 37], for which the pIC50 is 7.92.

`CC(F)(F)CN1CCC2(CC1)CN(C(=O)[C@@H]1CCCN1c1nc(N)n3nc(-c4ccco4)nc3n1)C2` [Example 365, (S)-(1-(7-amino-2-(furan-2-yl)-[1,2,4]triazolo[1,5-a][1,3,5]triazin-5-yl)pyrrolidin-2-yl)(7-(2,2-difluoropropyl)-2,7-diazaspiro[3-5]nonan-2-yl)methanone] had a pIC50 of 7.89. On to `Nc1nc(N[C@H](C(=O)N2CCN(c3ccc(F)cc3F)CC2)C2CCOCC2)nc2nc(-c3ccco3)nn12` [Example 171, (S)-2-((7-amino-2-(furan-2-yl)-[1,2,4]triazolo[1,5-a][1,3,5]triazin-5-yl)amino)-1-(4-(2,4-difluorophenyl)piperazin-1-yl)-2-(tetrahydro-2H-pyran-4-yl)ethan-1-one], for which the pIC50 was 8.52. The compound `C[C@H](Nc1nc(N)n2nc(-c3ccco3)nc2n1)C(=O)N1CCN(CC(C)(C)F)CC1` [Example 119, (S)-2-((7-amino-2-(furan-2-yl)-[1,2,4]triazolo[1,5-a][1,3,5]triazin-5-yl)amino)-1-(4-(2-fluoro-2-methylpropyl)piperazin-1-yl)propan-1-one] had a pIC50 of 8.05. This pIC50 lies 0.47 log units lower than the previous one. The same measure for `C[C@@H]1CN(CC(C)(F)F)CCN1C(=O)[C@@H]1CCCN1c1nc(N)n2nc(-c3ccco3)nc2n1` [Example 372, ((S)-1-(7-amino-2-(furan-2-yl)-[1,2,4]triazolo[1,5-a][1,3,5]triazin-5-yl)pyrrolidin-2-yl)((R)-4-(2,2-difluoropropyl)-2-methylpiperazin-1-yl) methanone]: 9.00; for `Nc1nc(N2CCC[C@H]2C(=O)N2CCC(c3ccccc3)CC2)nc2nc(-c3ccco3)nn12` [Example 128, (S)-(1-(7-amino-2-(furan-2-yl)-[1,2,4]triazolo[1,5-a][1,3,5]triazin-5-yl)pyrrolidin-2-yl)(4-phenylpiperidin-1-yl)methanone]: 8.52.

Values taken from patent publication US20240217978A1 (CHONG KUN DANG PHARMACEUTICAL CORP., priority 2021, published 2024).
